Source: ChEMBL document CHEMBL1136307, “Novel chromene derivatives as TNF-alpha inhibitors” (Bioorg Med Chem Lett, 2003)

assay: Inhibitory activity against TNF-alpha production in human peripheral blood mononuclear cells(PBMC) using an ELISA assay; assay type: functional

Row | Compound | IC50
1 | COc1ccc2c(c1)OC(c1cc(OC)c(OC)c(OC)c1)C(/C=N/O)=C2 (centres undefined) | 4.1 µM
2 | COc1ccc2c(c1)OC(c1cc(OC)c(OC)c(OC)c1)C(C(=O)OC(C)(C)C)=C2 (centres undefined) | 13 µM
3 | COc1ccc2c(c1)OC(c1cc(OC)c(OC)c(OC)c1)C=C2 (centres undefined) | 11.6 µM
4 | COc1ccc2c(c1)OC(c1cc(OC)c(OC)c(OC)c1)C(C(=O)OC(C)C)=C2 (centres undefined) | 12 µM
5 | CCOCC1=Cc2ccc(OC)cc2OC1c1cc(OC)c(OC)c(OC)c1 (centres undefined) | 1.1 µM
6 | COc1ccc2c(c1)OC(c1cc(OC)c(OC)c(OC)c1)C(CO)=C2 (centres undefined) | 2.4 µM
7 | COc1ccc2c(c1)OC(c1cc(OC)c(OC)c(OC)c1)C(C(=O)OCCc1ccccc1)=C2 (centres undefined) | > 50 µM
8 | COc1ccc2c(c1)OC(c1cc(OC)c(OC)c(OC)c1)C(C(=O)N(C)OC)=C2 (centres undefined) | 31.1 µM
9 | COc1ccc2c(c1)OC(c1cc(OC)c(OC)c(OC)c1)C(C#N)=C2 (centres undefined) | 0.6 µM
10 | COc1ccc2c(c1)OC(c1cc(OC)c(OC)c(OC)c1)C(C(=O)Nc1ccccc1)=C2 (centres undefined) | > 50 µM
11 | COc1ccc2c(c1)OC(c1cc(OC)c(OC)c(OC)c1)C(C(=O)NC(C)(C)C)=C2 (centres undefined) | > 50 µM
12 | COc1ccc2c(c1)OC(c1cc(OC)c(OC)c(OC)c1)C(C=O)=C2 (centres undefined) | 0.6 µM
13 | COc1ccc2c(c1)OC(c1cc(OC)c(OC)c(OC)c1)C(C(=O)N1CCCCC1)=C2 (centres undefined) | 48 µM
14 | COc1ccc2c(c1)OC(c1cc(OC)c(OC)c(OC)c1)C(C(=O)NC(C)C)=C2 (centres undefined) | 41.6 µM

Continued, values first:

Row | IC50 | Compound
15 | 8.1 µM | CNC(=O)C1=Cc2ccc(OC)cc2OC1c1cc(OC)c(OC)c(OC)c1 (centres undefined)
16 | 0.1 µM | COc1ccc2c(c1)OC(c1cc(OC)c(OC)c(OC)c1)C(C(C)=O)=C2 (centres undefined)
17 | 17.9 µM | CCNC(=O)C1=Cc2ccc(OC)cc2OC1c1cc(OC)c(OC)c(OC)c1 (centres undefined)
18 | 7 µM | CCOC(=O)C1=Cc2ccc(OC)cc2OC1c1cc(OC)c(OC)c(OC)c1 (centres undefined)
19 | 4.7 µM | CCCC(=O)C1=Cc2ccc(OC)cc2OC1c1cc(OC)c(OC)c(OC)c1 (centres undefined)
20 | 0.6 µM | COc1ccc2c(c1)OC(c1cc(OC)c(OC)c(OC)c1)C(C(N)=O)=C2 (centres undefined)
21 | 31.3 µM | CCCCNC(=O)C1=Cc2ccc(OC)cc2OC1c1cc(OC)c(OC)c(OC)c1 (centres undefined)
22 | > 50 µM | COc1ccc2c(c1)OC(c1cc(OC)c(OC)c(OC)c1)C(C(=O)N(C)C)=C2 (centres undefined)
23 | 2 µM | COC(=O)C1=Cc2ccc(OC)cc2OC1c1cc(OC)c(OC)c(OC)c1 (centres undefined)
24 | > 50 µM | COc1ccc2c(c1)OC(c1cc(OC)c(OC)c(OC)c1)C(C(=O)O)=C2 (centres undefined)
